Key:
aromatase = experiment: QSAR (MLR) prediction of aromatase inhibitory activity; settings: for folds more potent than the compared analogue: pairs: 6c > 6, 7c > 7, 7a > 7, 6 > 6a, 7b > 7a, pIC50 based; for pIC50 fold greater than parent compound 1: predicted pIC50 versus experimental pIC50 0.301 of compound 1
Excerpt: Conceptually, a QSAR model was constructed using the data obtained from experimentally tested compounds (1-11). The constructed model was subsequently used to predict the activity of the additional set of structurally modified compounds (series 1-11) that were generated in silico.
Chemical structures of the tested compounds (1-11) along with their experimental IC50 values were used to construct the QSAR model. The IC50 values were converted to pIC50 values by taking the negative logarithm to base 10 (-log IC50) to obtain a normal distribution of data points.
The chemical structures of 11 tested compounds (1-11) and 39 structurally modified compounds (series 1-11) were drawn using the GaussView software (Dennington et al., 2003[11]). Optimization was performed to obtain the low-energy conformers for further calculation of molecular descriptor values. The compounds were geometrically optimized using Gaussian 09 (Frisch et al., 2009[13]) at the semi-empirical Austin Model 1 (AM1) level, followed by density functional theory (DFT) calculation using Becke's three-parameter hybrid method with the Lee-Yang-Parr correlation functional (B3LYP) together with the 6-31g(d) level. A set of 13 quantum chemical descriptors, i.e., mean absolute atomic charge (Qm), total energy (Etotal), total dipole moment (μ), highest occupied molecular orbital energy (EHOMO), lowest unoccupied molecular orbital energy (ELUMO), energy difference of HOMO and LUMO (HOMO-LUMOGap), electron affinity (EA), ionization potential (IP), Mulliken electronegativity (χ), hardness (η), softness (S), electrophilic index (ωi) and electrophilicity (ω), was extracted using a script developed in-house. The optimized structures were further calculated to obtain an additional set of 3,224 molecular descriptors using Dragon software version 5.5 (Talete, 2007[44]). The molecular descriptors obtained from the Dragon software included 22 classes, i.e., Constitutional descriptors, Topological descriptors, Walk and path counts, Connectivity indices, Information indices, 2D autocorrelation, Edge adjacency indices, Burden eigenvalues, Topological charge indices, Eigenvalue-based indices, Randic molecular profiles, Geometrical descriptors, RDF descriptors, 3D-MoRSE descriptors, WHIM descriptors, GETAWAY descriptors, Functional group counts, Atom-centered fragments, Charge descriptors, Molecular properties, 2D binary fingerprints and 2D frequency fingerprints.
Correlation-based feature selection was employed to initially select important descriptors from a large set of descriptors obtained from the calculation. The pair-correlation of each descriptor value and bioactivity (pIC50) was calculated using a Pearson's correlation coefficient (r) of 0.6 as a cut-off value. Descriptors with |r| < 0.6 were considered weakly correlated descriptors and were excluded from the study, whereas those with |r| ≥ 0.6 were selected for further selection process using stepwise multiple linear regression (MLR) as implemented in SPSS statistics 18.0 (SPSS Inc., USA[41]). Finally, a set of important descriptors was obtained for multivariate analysis.
Multivariate analysis was performed by Waikato Environment for Knowledge Analysis (WEKA) version 3.4.5 (Witten et al., 2011[47]) using a multiple linear regression (MLR) algorithm. Selected descriptor values and pIC50 values were assigned as independent variables (X) and dependent variables (Y), respectively. The MLR model was constructed according to Equation 2: […]
The data set was divided into a training set and a testing set by means of leave-one-out cross validation (LOO-CV). Conceptually, one sample was removed from the entire data set (N) and was used as the testing set, whereas the remaining samples (N-1) were used as the training set. The same sampling process was continued until every sample in the data set was used as the testing set to predict the variable Y (activity). […]

[1] = molecular target: T1, recombinant human aromatase (CYP19) (Homo sapiens, UniProt P11511); experiment: Aromatase inhibition assay (Gentest kit, CYP19 with DBF fluorometric substrate); settings: for Aromatase inhibitory activity category: category by experimental IC50
T1 sequence (P11511 1-503): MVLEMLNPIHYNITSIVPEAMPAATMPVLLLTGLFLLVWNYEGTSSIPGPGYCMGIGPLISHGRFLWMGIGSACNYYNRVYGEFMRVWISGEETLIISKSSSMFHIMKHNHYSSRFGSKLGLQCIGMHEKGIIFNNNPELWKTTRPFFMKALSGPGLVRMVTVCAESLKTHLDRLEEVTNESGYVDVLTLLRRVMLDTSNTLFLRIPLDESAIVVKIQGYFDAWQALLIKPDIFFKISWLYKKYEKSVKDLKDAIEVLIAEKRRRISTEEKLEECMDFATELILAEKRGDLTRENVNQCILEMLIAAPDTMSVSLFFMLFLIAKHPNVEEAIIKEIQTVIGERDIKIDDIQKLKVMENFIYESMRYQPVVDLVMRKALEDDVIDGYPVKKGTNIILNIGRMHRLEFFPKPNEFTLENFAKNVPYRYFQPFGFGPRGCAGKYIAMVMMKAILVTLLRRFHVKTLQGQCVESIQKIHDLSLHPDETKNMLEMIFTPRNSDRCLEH
Procedure: The assay was performed with a Gentest kit using enzyme CYP19 and DBF as a fluorometric substrate. DBF was dealkylated by aromatase and then hydrolyzed, yielding the fluorescein product. […] After the incubation at 37 °C for 30 min, the reaction was terminated by adding 50 µL of 2.2 N NaOH. […] The percentage of inhibition (% inhibition) was calculated using Equation 1. […] IC50 values were determined by plotting concentrations versus % inhibition.

MRC-5 cell line [2] = system: MRC-5 cell line; set-up: method as in Prachayasittikul et al., 2014[35]; settings: normal MRC-5 cell line, ref Prachayasittikul et al., 2014[35], cited from earlier work; for IC50: read-out: MRC-5 (µM) cytotoxicity
MRC-5 cell line [3] = experiment: Cytotoxicity against the normal MRC-5 cell line; format: cell-based; settings: MRC-5 cytotoxicity versus aromatase IC50
Excerpt: The cytotoxicity of compounds 1-11 against the normal MRC-5 cell line (Table 1(Tab. 1)) was previously documented (Prachayasittikul et al., 2014[35]).

[4] = Aromatase inhibitory activity IC50, Inactive = % inhibition ≤ 50 % at 12.5 µM
[5] = Experimental aromatase inhibitory activity (pIC50), -log IC50 of the experimental IC50 values

| IC50 [1, 4] [µM] | IC50 [1, 5] [µM] | SMILES | Aromatase inhibitory activity category [1] | SI (selectivity index) (MRC-5 cell line [3]) | IC50 (MRC-5 cell line [2]) [µM] | also measured |
| --- | --- | --- | --- | --- | --- | --- |
|  |  | O=C1C(Cl)=C(Nc2ccc(C(=O)C(F)(F)F)cc2)C(=O)c2ccccc21 [Compound 7a] |  |  |  | folds more potent than the compared analogue (aromatase): 1.47 folds |
| 8.7 ± 0.9 | 8.71 | CCCCNC1=C(Cl)C(=O)c2ccccc2C1=O [Compound 2] | moderately active (moderately active (1 µM < IC50 < 10 µM)) |  |  | MRC-5 (µM) cytotoxicity (MRC-5 cell line [2]): non-cytotoxic |
|  |  | CN(C1=C(Cl)C(=O)c2ccccc2C1=O)c1ccc(C(=O)O)cc1 [Compound 5d] |  |  |  | folds more potent than ketoconazole (aromatase; predicted pIC50 -0.329 versus ketoconazole pIC50 -0.415): 1.26 folds |
|  |  | O=C1C(I)=C(I)C(=O)c2ccccc21 [Compound 1b] |  |  |  | pIC50 fold greater than parent compound 1 (aromatase): 11.90 fold; pIC50 fold greater than letrozole (aromatase; predicted pIC50 versus experimental pIC50 […] of letrozole): 1.03 fold |
|  |  | COc1cccc2c1C(=O)c1c(O)c3c(c(O)c1C2=O)C[C@@](O)(C(=O)CO)C[C@@H]3O[C@H]1C[C@H](N)[C@H](O)[C@H](C)O1 [Doxorubicin, reference compound] |  |  |  | MRC-5 (µM) cytotoxicity (MRC-5 cell line [2]): non-cytotoxic |
|  |  | COc1ccc(CCNC2=C(Cl)C(=O)c3ccccc3C2=O)cc1OC [Compound 11] | inactive |  |  | MRC-5 (µM) cytotoxicity (MRC-5 cell line [2]): non-cytotoxic |
| 4.7 | 4.7 | O=C1C(Cl)=C(Nc2cccc3cccnc23)C(=O)c2ccccc21 [Compound 9] | moderately active (moderately active (1 µM < IC50 < 10 µM)) | 2.89 | 13.6 ± 1.33 |  |
| 18 | 18 | O=C(O)c1ccccc1NC1=C(Cl)C(=O)c2ccccc2C1=O [Compound 5] | weak | 4.78 | 86 ± 3.04 |  |
|  |  | CC(=O)c1cccc(N(C)C2=C(Cl)C(=O)c3ccccc3C2=O)c1 [Compound 6c] |  |  |  | folds more potent than the compared analogue (aromatase): 1.67 folds |
|  |  | O=C1C(Br)=C(Br)C(=O)c2ccccc21 [Compound 1a] |  |  |  | pIC50 fold greater than parent compound 1 (aromatase): 1.83 fold |
|  |  | O=C1C(F)=C(F)C(=O)c2ccccc21 [Compound 1c] |  |  |  | pIC50 fold greater than parent compound 1 (aromatase): 2.04 fold |
|  |  | CCN(C1=C(Cl)C(=O)c2ccccc2C1=O)c1ccccc1 [Compound 4a] |  |  |  | pIC50 fold greater than parent compound 1 (aromatase): 1.08 fold; fold less potent than letrozole (aromatase; predicted pIC50 versus letrozole): 10.68 fold |
| 3.3 | 3.3 | O=C1C(Cl)=C(NCCc2ccccc2)C(=O)c2ccccc21 [Compound 10] | moderately active (moderately active (1 µM < IC50 < 10 µM)) |  |  | MRC-5 (µM) cytotoxicity (MRC-5 cell line [2]): non-cytotoxic |
| 0.5 ± 0.4 | 0.5 | CN(C1=C(Cl)C(=O)c2ccccc2C1=O)c1ccccc1 [Compound 4] | highly active (highly active (IC50 < 1 µM)) | 17.20 | 8.6 ± 0.77 |  |
|  |  | O=C1C(Cl)=C(Nc2ccccc2)C(=O)c2ccccc21 [Compound 3] | inactive |  | 16.4 ± 1.28 |  |
|  |  | CC(=O)c1ccc(N(C)C2=C(Cl)C(=O)c3ccccc3C2=O)cc1 [Compound 7c] |  |  |  | folds more potent than the compared analogue (aromatase): 2.73 folds |
| 5.3 | 5.3 | CC(=O)c1ccc(NC2=C(Cl)C(=O)c3ccccc3C2=O)cc1 [Compound 7] | moderately active (moderately active (1 µM < IC50 < 10 µM)) | 2.32 | 12.3 ± 1.08 |  |
|  |  | CN(C1=C(Cl)C(=O)c2ccccc2C1=O)c1ccc(C(=O)C(F)(F)F)cc1 [Compound 7b] |  |  |  | folds more potent than the compared analogue (aromatase): 2.28 folds |
| 1.9 | 1.9 | O=C1C(Cl)=C(Nc2ccc(Nc3ccccc3)cc2)C(=O)c2ccccc21 [Compound 8] | moderately active (moderately active (1 µM < IC50 < 10 µM)) | 10.94 | 20.8 ± 0.68 |  |
| 3.1 | 3.1 | CC(=O)c1cccc(NC2=C(Cl)C(=O)c3ccccc3C2=O)c1 [Compound 6] | moderately active (moderately active (1 µM < IC50 < 10 µM)) | 5.01 | 15.5 ± 0.75 | folds more potent than the compared analogue (aromatase): 1.83 folds |

| SMILES | IC50 [1, 4] [µM] | IC50 [1, 5] [µM] | Aromatase inhibitory activity category [1] | SI (selectivity index) (MRC-5 cell line [3]) | IC50 (MRC-5 cell line [2]) [µM] | also measured |
| --- | --- | --- | --- | --- | --- | --- |
| O=C1C(Cl)=C(Cl)C(=O)c2ccccc21 [Compound 1, 2,3-dichloro-1,4-naphthoquinone] | 0.5 ± 0.3 | 0.5 | highly active (highly active (IC50 < 1 µM)) | 45.98 | 23 ± 0.42 | IC50 fold lower than ketoconazole [1]: 5.2 fold |
